From patent US8624027B2, “Combination therapy for treating cancer and diagnostic assays for use therein” (AbbVie Inc., priority 2005, dated 2014)
pEC50, pKi: −log10 of the molar value. Like-named read-outs stand apart in the source and are kept apart here.

How the values were obtained:
[1] = target: T1, Bcl-2 protein (Homo sapiens, UniProt P10415, DELINS35-91DVEENRTEAPEGTESE, form not given); test: Bcl-2 binding affinity, fluorescence polarization with fluorescein-labeled BAX peptide; conditions: Wang's equation, read-out: Target Binding Affinity Ki (Bcl-2)
T1 construct: fused on or other part: A short piece of the Bcl-xL (Q07817) loop replaces Bcl-2 loop residues 35-91; The C-terminal membrane anchor is absent

[2] = system: NCI-H146 human small cell lung carcinoma cells; test: Cellular efficacy in human tumor cell line (MTS viability assay); type: cell-based; conditions: NCI-H146, 10% human serum, 48 hours
Protocol: NCI-H146 (ATCC, Manassas, Va.) human small cell lung carcinoma cells were plated 50,000 cells per well in 96-well tissue culture plates in a total volume of 100 μL tissue culture medium supplemented with 10% human serum (Invitrogen, Carlsbad, Calif.) instead of fetal bovine serum and treated with a 2-fold serial dilution of the compounds of interest from 10 μM to 0.020 μM. Each concentration was tested in duplicate at least 3 separate times. The number of viable cells following 48 hours of compound treatment was determined using the CellTiter 96® AQueous non-radioactive cell proliferation MTS assay according to manufacturer's recommendations (Promega Corp., Madison, Wis.).

[3] = target: Bcl-XL protein (Homo sapiens, UniProt Q07817); test: Bcl-XL binding affinity, fluorescence polarization with fluorescein-labeled BAD peptide; conditions: Wang's equation, read-out: Target Binding Affinity Ki (Bcl-XL)
[4] = Pharmacokinetic evaluation in rat; type: in vivo; conditions: male, Sprague-Dawley, plasma; for AUC / Cmax: 5 mg/kg, oral; for AUC: Table 3, read-out: Pharmacokinetic area under the plasma concentration Curve (rat) AUC; for Cmax: Table 3, read-out: Pharmacokinetic peak plasma concentration (rat) Cmax; for AUC(0-inf): single 5 mg/kg oral dose, Table 1, read-out: Pharmacokinetic area under the plasma concentration Curve (rat) AUC0-∞
Protocol: The pharmacokinetic behavior of compounds of this disclosure was determined following a single 2 mg/kg intravenous or 5 mg/kg oral dose in male Sprague-Dawley derived rats (n=3 per group). The compounds were prepared as 2 mg/mL solution in a 10% DMSO in PEG-400 formulation for both oral and intravenous administration. The 1 mL/kg intravenous dose was administered as a slow bolus (about 1-2 minutes) in the jugular vein of a rat under light ether anesthetic. The oral dose was administered by gavage. Serial blood samples were obtained from a tail vein of each rat prior 0.1 (IV only), 0.25, 0.5, 1, 1.5, 2, 3, 4, 6, 8 and 24 hours after dosing. The heparinized samples were thoroughly mixed and placed in an ice bath. Plasma was separated by centrifugation and stored frozen prior to analysis.
The compounds of interest were separated from the plasma using protein precipitation with acetonitrile. A plasma (100-200 μL, sample or spiked standard) aliquot was combined with 50 μL of internal standard (structurally related analog prepared in acetonitrile) and 1 ml acetonitrile in a 96-well polypropylene deep well plate. The plates were vortexed for 30 seconds followed by centrifugation (3500 rpm×15 minutes, 4° C.). In an automated manner, the supernatant was transferred to a clean 96-well plate. The samples were evaporated to near dryness on a Micro-Vap™ under a stream of dry nitrogen over low heat (˜37° C.). The samples were reconstituted vortexing with 0.2 mL 5% DMSO in acetonitrile. A 0.1-0.2 ml aliquot of acetonitrile: 0.1% trifluoroacetic acid (20:80, by volume) was added to each well, followed by an additional 30 second vortexing. The plates were centrifuged (3500 rpm×15 minutes, 4° C.) prior to HPLC-MS/MS analysis. Samples were analyzed simultaneously with spiked plasma standards. All samples from each study were analyzed as a single batch on the LC-MS/MS.
The compounds of interest and the internal standard were separated from each other and co-extracted contaminants on a 50×3 mm Keystone Betasil CN 5 μm column with an acetonitrile: 0.1% trifluoroacetic acid mobile phase (50:50, by volume) at a flow rate of 0.7 ml/min. Analysis was performed on a Sciex API 300™ Biomolecular Mass Analyzer using a heated nebulizer interface. Peak areas of the title compounds and internal standards were determined using the Sciex MacQuan™ software. Calibration curves were derived from peak area ratio (parent drug/internal standard) of the spiked rat plasma standards using least squares linear regression of the ratio versus the theoretical concentration. The methods were generally linear over the range of the standard curve (correlation coefficients >0.99) with an estimated quantitation limit of 0.01 μg/mL. The plasma concentration data for each animal were submitted to multi-exponential curve fitting using WinNonlin. The area under the plasma concentration-time curve from 0 to t hours (time of the last measurable plasma concentration) after dosing (AUC0-t) was calculated using the linear trapezoidal rule for the plasma concentration-time profiles. The residual area extrapolated to infinity, determined as the final measured plasma concentration (Ct) divided by the terminal elimination rate constant (β), was added to AUC0-t to produce the total area under the curve (AUC0-∞). Ki values shown in the tables below were determined using Wang's equation (Wang Z X., An Exact Mathematical Expression For Describing Competitive Binding Of Two Different Ligands To A Protein Molecule. FEBS Lett. 1995; 360:111-4)).

[5] = Table 1, read-out: NCI-H146 Cellular Efficacy EC50
[6] = Table 3, read-out: NCI-H146 Cellular Efficacy H146 EC50

Bcl-XL protein, sequence (Q07817 with tags, fused parts or gaps DEL45-84): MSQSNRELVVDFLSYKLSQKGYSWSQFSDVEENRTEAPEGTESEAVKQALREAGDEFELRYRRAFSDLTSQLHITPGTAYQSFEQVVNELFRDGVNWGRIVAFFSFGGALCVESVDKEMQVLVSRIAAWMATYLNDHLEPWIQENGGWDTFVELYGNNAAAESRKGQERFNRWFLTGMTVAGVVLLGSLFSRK
T1 sequence (P10415 with tags, fused parts or gaps with the stated changes): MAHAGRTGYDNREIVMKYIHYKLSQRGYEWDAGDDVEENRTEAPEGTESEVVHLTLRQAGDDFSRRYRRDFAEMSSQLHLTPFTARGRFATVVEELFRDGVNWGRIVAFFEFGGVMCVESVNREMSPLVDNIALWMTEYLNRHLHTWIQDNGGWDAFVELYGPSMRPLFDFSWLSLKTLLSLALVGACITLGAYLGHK

pKi [1] | pEC50 [2, 5] | pKi [3] | AUC(0-inf) [4] | Structure (SMILES) | pEC50 [2, 6] | AUC [4] | Cmax [4]
≥ 9.00 | 7.86 | ≥ 9.00 | 1.88 µM·h | O=C(NS(=O)(=O)c1ccc(N[C@H](CCN2CC3CC2CO3)CSc2ccccc2)c(S(=O)(=O)C(F)(F)F)c1)c1ccc(N2CCN(CC3=C(c4ccc(Cl)cc4)CCCC3)CC2)cc1 (stereo partly drawn) [Example 9, N-(4-(4-((2-(4-chlorophenyl)cyclohex-1-en-1-yl)methyl)piperazin-1-yl)benzoyl)-4-(((1R)-3-(2-oxa-5-azabicyclo[2.2.1]hept-5-yl)-1-((phenylsulfanyl)methyl)propyl)amino)-3-((trifluoromethyl)sulfonyl)benzenesulfonamide] | 7.85 | 1.88 µM·h | 156 nM
≥ 9.00 | 7.47 | ≥ 9.00 | 2.48 µM·h | CC1(C)CCC(c2ccc(Cl)cc2)=C(CN2CCN(c3ccc(C(=O)NS(=O)(=O)c4ccc(N[C@H](CCN5CC6CC5CO6)CSc5ccccc5)c(S(=O)(=O)C(F)(F)F)c4)cc3)CC2)C1 (stereo partly drawn) [Example 10, N-(4-(4-((2-(4-chlorophenyl)-5,5-dimethylcyclohex-1-en-1-yl)methyl)piperazin-1-yl)benzoyl)-4-(((1R)-3-(2-oxa-5-azabicyclo[2.2.1]hept-5-yl)-1-((phenylsulfanyl)methyl)propyl)amino)-3-((trifluoromethyl)sulfonyl)benzenesulfonamide] |  |  | 
≥ 8.70 | 7.69 | ≥ 8.52 | 2.4 µM·h | CC1(C)CCC(c2ccc(Cl)cc2)=C(CN2CCN(c3ccc(C(=O)NS(=O)(=O)c4ccc(N[C@H](CCN5CC6CC5CO6)CSc5ccccc5)c(S(=O)(=O)C(F)(F)Cl)c4)cc3)CC2)C1 (stereo partly drawn) [Example 11, 3-((chloro(difluoro)methyl)sulfonyl)-N-(4-(4-((2-(4-chlorophenyl)-5,5-dimethylcyclohex-1-en-1-yl)methyl)piperazin-1-yl)benzoyl)-4-(((1R)-3-(2-oxa-5-azabicyclo[2.2.1]hept-5-yl)-1-((phenylsulfanyl)methyl)propyl)amino)benzenesulfonamide] |  |  | 
≥ 9.00 | 7.57 | ≥ 9.00 | 2.07 µM·h | O=C(NS(=O)(=O)c1ccc(N[C@H](CCN2CC3CC2CO3)CSc2ccccc2)c(S(=O)(=O)C(F)(F)F)c1)c1ccc(N2CCN(CC3=C(c4ccc(Cl)cc4)CCCCC3)CC2)cc1 (stereo partly drawn) [Example 12, N-(4-(4-((2-(4-chlorophenyl)cyclohept-1-en-1-yl)methyl)piperazin-1-yl)benzoyl)-4-(((1R)-3-(2-oxa-5-azabicyclo[2.2.1]hept-5-yl)-1-((phenylsulfanyl)methyl)propyl)amino)-3-((trifluoromethyl)sulfonyl)benzenesulfonamide] |  |  | 
≥ 9.00 | 7.72 | ≥ 9.00 | 2.06 µM·h | O=C(NS(=O)(=O)c1ccc(N[C@H](CCN2CC3CC2CO3)CSc2ccccc2)c(S(=O)(=O)C(F)(F)Cl)c1)c1ccc(N2CCN(CC3=C(c4ccc(Cl)cc4)CCCCC3)CC2)cc1 (stereo partly drawn) [Example 13, 3-((chloro(difluoro)methyl)sulfonyl)-N-(4-(4-((2-(4-chlorophenyl)cyclohept-1-en-1-yl)methyl)piperazin-1-yl)benzoyl)-4-(((1R)-3-(2-oxa-5-azabicyclo[2.2.1]hept-5-yl)-1-((phenylsulfanyl)methyl)propyl)amino)benzenesulfonamide] |  |  | 
≥ 9.00 | 7.51 | ≥ 9.00 | 3.42 µM·h | CC(C)N(C)CC[C@H](CSc1ccccc1)Nc1ccc(S(=O)(=O)NC(=O)c2ccc(N3CCN(CC4=C(c5ccc(Cl)cc5)CC(C)(C)CC4)CC3)cc2)cc1S(=O)(=O)C(F)(F)F [Example 14, N-(4-(4-((2-(4-chlorophenyl)-4,4-dimethylcyclohex-1-en-1-yl)methyl)piperazin-1-yl)benzoyl)-4-(((1R)-3-(isopropyl(methyl)amino)-1-((phenylsulfanyl)methyl)propyl)amino)-3-((trifluoromethyl)sulfonyl)benzenesulfonamide] |  |  | 
≥ 9.00 | 8.00 | ≥ 9.00 | 1.25 µM·h | O=C(NS(=O)(=O)c1ccc(N[C@H](CCN2CCCOCC2)CSc2ccccc2)c(S(=O)(=O)C(F)(F)F)c1)c1ccc(N2CCN(CC3=C(c4ccc(Cl)cc4)CCCC3)CC2)cc1 [Example 15, N-(4-(4-((2-(4-chlorophenyl)cyclohex-1-en-1-yl)methyl)piperazin-1-yl)benzoyl)-4-(((1R)-3-(1,4-oxazepan-4-yl)-1-((phenylsulfanyl)methyl)propyl)amino)-3-((trifluoromethyl)sulfonyl)benzenesulfonamide] |  |  | 
≥ 8.70 | 7.43 | ≥ 8.70 | 2.37 µM·h | O=C(NS(=O)(=O)c1ccc(N[C@H](CCN2CCCCCC2)CSc2ccccc2)c(S(=O)(=O)C(F)(F)F)c1)c1ccc(N2CCN(CC3=C(c4ccc(Cl)cc4)CCCC3)CC2)cc1 [Example 16, 4-(((1R)-3-(azepan-1-yl)-1-((phenylsulfanyl)methyl)propyl)amino)-N-(4-(4-((2-(4-chlorophenyl)-1-cyclohex-1-en-1-yl)methyl)piperazin-1-yl)benzoyl)-3-((trifluoromethyl)sulfonyl)benzenesulfonamide] |  |  | 
≥ 9.00 | 7.54 | ≥ 9.00 | 0.88 µM·h | CN(C)CC[C@H](CSc1ccccc1)Nc1ccc(S(=O)(=O)NC(=O)c2ccc(N3CCN(CC4=C(c5ccc(Cl)cc5)CCCCC4)CC3)cc2)cc1S(=O)(=O)C(F)(F)F [Example 17, N-(4-(4-((2-(4-chlorophenyl)cyclohept-1-en-1-yl)methyl)piperazin-1-yl)benzoyl)-4-(((1R)-3-(dimethylamino)-1-((phenylsulfanyl)methyl)propyl)amino)-3-((trifluoromethyl)sulfonyl)benzenesulfonamide] |  |  | 

Structure (SMILES) | pKi [1] | pEC50 [2, 5] | pKi [3] | AUC(0-inf) [4] | pEC50 [2, 6] | AUC [4] | Cmax [4]
O=C(NS(=O)(=O)c1ccc(N[C@H](CCN2C3CCC2CC3)CSc2ccccc2)c(S(=O)(=O)C(F)(F)F)c1)c1ccc(N2CCN(CC3=C(c4ccc(Cl)cc4)CCCC3)CC2)cc1 [Example 8, 4-(((1R)-3-(7-azabicyclo[2.2.1]hept-7-yl)-1-((phenylsulfanyl)methyl)propyl)amino)-N-(4-(4-((2-(4-chlorophenyl)cyclohex-1-en-1-yl)methyl)piperazin-1-yl)benzoyl)-3-((trifluoromethyl)sulfonyl)benzenesulfonamide] | ≥ 9.00 | 7.67 | ≥ 9.00 | 1.1 µM·h | 7.68 | 1.1 µM·h | 71 nM
